Experimental data as given in US20250250542A1, “CULTURE METHOD” (Quell Therapeutics Limited, priority 2023, published 2025).

Tests used:
[1] = test system: bulk Tregs from patient donor material; experiment: % of FOXP3+ cells in the expansion product from patient donor material; assay type: cell-based, human; conditions: 100 nM rapamycin
Description: Leukopaks were supplied by BioIVT.
Leukopaks were used to derive Treg populations. […] Where indicated, CD4+CD25+CD127−/low (Bulk Tregs) were used.

[2] = test system: Tregs from patient material; experiment: Transduction efficiency of expansion product (% Dextramer+/QBEND+)
Description: A lentiviral vector was used to transduce the cells. The vector encodes an RQR8 safety switch, a FOXP3 polypeptide and an HLA-A2-specific CAR.
The Tregs were rested in Treg culture media (X-VIVO 15 media (Lonza) supplemented with 5% Human AB serum (heat-inactivated; Merck)) containing 100 nM of rapamycin for 1 hour before activation. The Tregs were then activated by adding CD3 and CD28 beads and cultured for 24 or 48 hours (1+24 and 1+48 conditions respectively). At 24 or 48 hours, the cells were washed with fresh Treg culture media and centrifuged. The supernatant was removed and the cell pellet was resuspended in fresh Treg culture media. The expansion was then continued in the fresh Treg culture media (X-VIVO 15 media (Lonza) supplemented with 5% Human AB serum (heat-inactivated; Merck)) further containing IL-2 (Proleukin, Clinigen Healthcare) and lentiviral supernatant but no rapamycin. Cells were re-fed every 2 to 3 days with Treg culture media supplemented with IL-2. Cells were harvested by removing the CD3 and CD28 beads 14 days after activation.

SMILES: CO[C@H]1C[C@@H]2CC[C@@H](C)[C@@](O)(O2)C(=O)C(=O)N2CCCC[C@H]2C(=O)O[C@H]([C@H](C)C[C@@H]2CC[C@@H](O)[C@H](OC)C2)CC(=O)[C@H](C)/C=C(\C)[C@@H](O)[C@@H](OC)C(=O)[C@H](C)C[C@H](C)/C=C/C=C/C=C/1C [rapamycin]
- % CD4+CD25+FOXP3+ cells ([1]; donor LTX-008, 1 + 24 h, day 14 (control 80.8)): 91.2%
- % CD4+CD25+FOXP3+ cells ([1]; donor LTX-008, 1 + 48 h, day 14 (control 80.8)): 91.4%
- % CD4+CD25+FOXP3+ cells ([1]; donor LTX-0011, 1 + 48 h, day 14 (control 57.3)): 92.6%
- % CD4+CD25+FOXP3+ cells ([1]; donor LTX-0012, 1 + 48 h, day 14 (control 92.8)): 98.2%
- % CD4+CD25+FOXP3+ cells ([1]; donor LTX-0013, 1 + 48 h, day 14 (control 41.0)): 89.9%
- % Dextramer+/QBEND+ ([2]; donor LTX-008, 1 + 24 (control 36)): 30%
- % Dextramer+/QBEND+ ([2]; donor LTX-008, 1 + 48 (control 36)): 37.8%
- % Dextramer+/QBEND+ ([2]; donor LTX-0011, 1 + 48 (control 20.5)): 30.8%
- % Dextramer+/QBEND+ ([2]; donor LTX-0012, 1 + 48 (control 10)): 11%
